Strand notation (5' to 3'): a small letter for the sugar, then the base; units joined by * are phosphorothioate-linked, units joined directly phosphodiester-linked; [ ] holds rarer units or linkages, { } end groups; capitals alone tell only the bases. k = constrained ethyl (cEt); [5mC] = 5-methylcytosine; d = 2'-deoxy (DNA)

In the first series the test system is Yap1 mRNA. Put plainly: Antisense inhibition of human Yap1 in A-431 cells by cEt gapmers, single dose (Example 3, RTS36584). Format: cell-based. To be noted: Table 9; A-431 cells, 5,000 cells per well, free uptake, 2,000 nM, approximately 48 hours; RTS36584; normalized to RIBOGREEN; Yap1 mRNA relative to untreated control cells. The procedure, abridged:
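A-431 cells (5,000/well) took up the 3-10-3 cEt gapmers by free uptake at 2,000 nM for about 48 h. Yap1 mRNA was measured by RT-qPCR with primer probe set RTS36584, normalized to RiboGreen total RNA, and given as % of untreated control.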
For “958656 (kA*k[5mC]*kG*d[5mC]*dA*dA*dT*d[5mC]*dT*dG*dT*dG*dA*kT*k[5mC]*k[5mC]; antisense) [Compound 958656]”, the “YAP1 (% UTC)” value worked out at 48 % UTC.

For “958661 (kT*kG*k[5mC]*d[5mC]*dG*dT*dT*dG*dG*d[5mC]*d[5mC]*d[5mC]*d[5mC]*kT*k[5mC]*k[5mC]; antisense) [Compound 958661]”, the “YAP1 (% UTC)” value was determined as 120 % UTC.

“958666 (kG*kA*kA*dA*dA*dG*dG*dG*d[5mC]*dA*dA*dT*d[5mC]*kA*kT*kA; antisense) [Compound 958666]”: the “YAP1 (% UTC)” value is recorded as 52 % UTC.

“958671 (k[5mC]*kA*kT*dT*dA*dT*dA*dT*dG*dG*d[5mC]*dA*d[5mC]*k[5mC]*k[5mC]*kA; antisense) [Compound 958671]”: the “YAP1 (% UTC)” value worked out at 19 % UTC.

“958676 (kG*kA*kA*d[5mC]*dT*dT*dA*dG*dT*dT*d[5mC]*d[5mC]*d[5mC]*kT*kA*kT; antisense) [Compound 958676]”: the “YAP1 (% UTC)” value came to 34 % UTC.

Turning to “958681 (kA*kA*kT*dT*dA*dA*d[5mC]*dA*d[5mC]*d[5mC]*dT*dG*dA*kG*k[5mC]*kT; antisense) [Compound 958681]”, the “YAP1 (% UTC)” value was determined as 84 % UTC.

As for “958686 (antisense k[5mC]*kG*k[5mC]*dA*dA*dT*dA*dT*dA*dG*dT*d[5mC]*dT*kA*kT*kA) [Compound 958686]”, the “YAP1 (% UTC)” value came out at 4 % UTC.

On to “958691 (antisense kT*k[5mC]*kA*dG*dT*dT*dG*dG*d[5mC]*dA*dA*d[5mC]*dA*kG*kT*k[5mC]) [Compound 958691]”, for which the “YAP1 (% UTC)” value is given as 20 % UTC.

For “958696 (antisense kG*k[5mC]*kA*dT*dA*d[5mC]*dT*dA*d[5mC]*dA*d[5mC]*dT*dA*kT*kA*kA) [Compound 958696]”, the “YAP1 (% UTC)” value was found to be 56 % UTC.

Still in this series, the particulars now being: Table 10; A-431 cells, 5,000 cells per well, free uptake, 2,000 nM oligonucleotide, approx. 48 hours; primer probe set RTS36584; Yap1 mRNA normalized to RIBOGREEN, percent of untreated control.
Consider “958657 (k[5mC]*kA*kG*dT*dA*dT*dA*dA*dT*dA*dT*d[5mC]*d[5mC]*kT*kA*kA; antisense) [Compound 958657]”, for which the “YAP1 (% UTC)” value is 37 % UTC.

“958662 (kG*kA*kA*d[5mC]*dA*dG*dA*dT*dA*dG*dG*dA*d[5mC]*kT*kA*k[5mC]; antisense) [Compound 958662]”: the “YAP1 (% UTC)” value is given as 51 % UTC.

“958667 (kT*kG*k[5mC]*d[5mC]*dG*dG*dG*d[5mC]*d[5mC]*d[5mC]*d[5mC]*dT*dA*kT*kG*k[5mC]; antisense) [Compound 958667]”: the “YAP1 (% UTC)” value was found to be 80 % UTC.

Consider “958672 (kG*kA*kA*d[5mC]*dT*dT*dA*dG*dT*dT*d[5mC]*d[5mC]*d[5mC]*kT*kT*k[5mC]; antisense) [Compound 958672]”, for which the “YAP1 (% UTC)” value is given as 67 % UTC.

With “958677 (kA*kG*kA*dA*d[5mC]*dT*dT*dA*dG*dT*dT*d[5mC]*d[5mC]*k[5mC]*kT*kA; antisense) [Compound 958677]”, the “YAP1 (% UTC)” value was 51 % UTC.

In the case of “958682 (k[5mC]*k[5mC]*kA*dT*dG*dA*dG*dG*dG*dA*d[5mC]*dT*d[5mC]*k[5mC]*k[5mC]*kA; antisense) [Compound 958682]”, the “YAP1 (% UTC)” value was 123 % UTC.

As to “958687 (antisense kA*k[5mC]*kA*d[5mC]*dT*dA*dT*dG*dT*dG*dT*dT*d[5mC]*kT*kG*k[5mC]) [Compound 958687]”, the “YAP1 (% UTC)” value turned out to be 57 % UTC.

Consider “958692 (antisense kG*kG*k[5mC]*dT*dA*dG*dA*dG*dG*d[5mC]*d[5mC]*dG*dG*kG*kT*kG) [Compound 958692]”, for which the “YAP1 (% UTC)” value is 105 % UTC.

For the substance “958697 (antisense k[5mC]*kT*kA*dA*dA*dG*dA*dT*dG*dA*d[5mC]*dT*dA*k[5mC]*kT*kG) [Compound 958697]”, the “YAP1 (% UTC)” value was 39 % UTC.

The series is the same for the next values; noted with them: Table 11; A-431 cells, 5,000 cells per well, free uptake, 2,000 nM oligonucleotide, approx. 48 hours; primer probe set RTS36584; Yap1 mRNA normalized to RIBOGREEN, percent of untreated control.
On to “958658 (kA*k[5mC]*kA*dG*dT*dA*dT*dA*dA*dT*dA*dT*d[5mC]*k[5mC]*kT*kA; antisense) [Compound 958658]”, for which the “YAP1 (% UTC)” value was determined as 6 % UTC.

With “958663 (k[5mC]*kT*kA*dT*dT*dA*dG*dG*dG*dA*d[5mC]*dT*dG*kA*kA*k[5mC]; antisense) [Compound 958663]”, the “YAP1 (% UTC)” value was 32 % UTC.

As to “958668 (kG*kT*kG*dA*dT*d[5mC]*dT*dG*dT*dG*dA*dG*dA*kG*kG*kT; antisense) [Compound 958668]”, the “YAP1 (% UTC)” value is listed as 2 % UTC.

Consider “958673 (kA*kG*kA*dA*d[5mC]*dT*dT*dA*dG*dT*dT*d[5mC]*d[5mC]*k[5mC]*kT*kT; antisense) [Compound 958673]”, for which the “YAP1 (% UTC)” value was 30 % UTC.

With “958678 (kG*kG*kA*dG*dG*dA*dG*dT*d[5mC]*dA*d[5mC]*d[5mC]*dA*kT*kG*kG; antisense) [Compound 958678]”, the “YAP1 (% UTC)” value was found to be 74 % UTC.

Take “958683 (kT*kA*kT*dT*dG*dT*dG*d[5mC]*dT*dG*d[5mC]*dA*dT*k[5mC]*kT*k[5mC]; antisense) [Compound 958683]”: the “YAP1 (% UTC)” value came to 16 % UTC.

As for “958688 (antisense kG*kG*k[5mC]*dT*dA*dT*dG*dT*dA*dG*d[5mC]*d[5mC]*dT*kT*k[5mC]*k[5mC]) [Compound 958688]”, the “YAP1 (% UTC)” value came to 82 % UTC.

As to “958693 (antisense kG*kT*kG*dG*dT*dG*dT*d[5mC]*dT*d[5mC]*dA*d[5mC]*dA*kG*kG*k[5mC]) [Compound 958693]”, the “YAP1 (% UTC)” value came out at 99 % UTC.

Take “958698 (antisense k[5mC]*kT*kT*dA*dT*dT*dA*dG*d[5mC]*d[5mC]*d[5mC]*dT*d[5mC]*kA*kA*kA) [Compound 958698]”: the “YAP1 (% UTC)” value amounted to 30 % UTC.

Staying with this series, now noted: Table 12; A-431 cells, 5,000 cells per well, free uptake, 2,000 nM modified oligonucleotide, approx. 48 hours; RTS36584; normalized to RIBOGREEN; Yap1 mRNA relative to untreated control cells.
On to “958659 (kG*kT*kT*dG*dT*dA*dT*dT*dA*d[5mC]*dT*d[5mC]*dT*k[5mC]*k[5mC]*kA; antisense) [Compound 958659]”, for which the “YAP1 (% UTC)” value was found to be 2 % UTC.

With “958664 (kA*k[5mC]*kG*dA*dA*d[5mC]*dT*dA*dA*dG*dG*dT*dG*kT*kA*k[5mC]; antisense) [Compound 958664]”, the “YAP1 (% UTC)” value is given as 40 % UTC.

As for “958669 (kG*k[5mC]*kT*dA*dT*d[5mC]*dT*dT*dT*dG*dG*dA*dT*k[5mC]*k[5mC]*kA; antisense) [Compound 958669]”, the “YAP1 (% UTC)” value turned out to be 76 % UTC.

Turning to “958674 (kA*kA*kG*dA*dA*d[5mC]*dT*dT*dA*dG*dT*dT*d[5mC]*k[5mC]*k[5mC]*kT; antisense) [Compound 958674]”, the “YAP1 (% UTC)” value is reported as 25 % UTC.

Turning to “958679 (kG*kT*kA*dA*d[5mC]*dT*dG*d[5mC]*d[5mC]*dA*d[5mC]*dA*dG*kT*kT*kA; antisense) [Compound 958679]”, the “YAP1 (% UTC)” value amounted to 77 % UTC.

Regarding “958684 (kG*k[5mC]*kT*dG*dA*dA*dG*dA*d[5mC]*dG*dG*d[5mC]*d[5mC]*k[5mC]*kT*kT; antisense) [Compound 958684]”, the “YAP1 (% UTC)” value was 70 % UTC.

For the substance “958689 (antisense k[5mC]*kA*kT*dT*dA*dA*dG*dG*dA*dG*dG*dT*dT*kA*kT*kG) [Compound 958689]”, the “YAP1 (% UTC)” value was 87 % UTC.

On to “958694 (antisense kA*kT*kT*dG*dG*dT*dG*dG*dT*dG*dT*d[5mC]*dT*k[5mC]*kA*k[5mC]) [Compound 958694]”, for which the “YAP1 (% UTC)” value came out at 41 % UTC.

Consider “958699 (antisense kG*kA*k[5mC]*dT*dA*dG*dA*dA*dA*dG*dA*dT*d[5mC]*kA*kT*k[5mC]) [Compound 958699]”, for which the “YAP1 (% UTC)” value stood at 20 % UTC.

Staying with this series, now noted: Table 13; A-431 cells, 5,000 cells per well, free uptake, 2,000 nM modified oligonucleotide, approx. 48 hours; RTS36584; normalized to RIBOGREEN; Yap1 mRNA relative to untreated control cells.
In the case of “958655 (kG*k[5mC]*kA*dA*dT*d[5mC]*dT*dG*dT*dG*dA*dT*d[5mC]*k[5mC]*k[5mC]*kA; antisense) [Compound 958655]”, the “YAP1 (% UTC)” value came out at 12 % UTC.

Regarding “958660 (k[5mC]*k[5mC]*k[5mC]*dA*d[5mC]*dT*dG*dG*dG*dT*dT*dT*dG*kT*k[5mC]*k[5mC]; antisense) [Compound 958660]”, the “YAP1 (% UTC)” value was 106 % UTC.

For “958665 (k[5mC]*kT*kG*d[5mC]*dA*dT*dA*d[5mC]*d[5mC]*d[5mC]*dT*d[5mC]*d[5mC]*kA*kG*k[5mC]; antisense) [Compound 958665]”, the “YAP1 (% UTC)” value came to 84 % UTC.

For “958670 (kG*kG*kT*d[5mC]*dT*dT*dG*dG*dT*dG*dA*dT*dT*kG*kG*k[5mC]; antisense) [Compound 958670]”, the “YAP1 (% UTC)” value is given as 20 % UTC.

Consider “958675 (kT*k[5mC]*k[5mC]*d[5mC]*dT*dA*dT*d[5mC]*dA*dG*d[5mC]*dT*dG*kG*kG*k[5mC]; antisense) [Compound 958675]”, for which the “YAP1 (% UTC)” value came out at 112 % UTC.

As to “958680 (kA*kT*kT*dA*dA*d[5mC]*dA*d[5mC]*d[5mC]*dT*dG*dA*dG*k[5mC]*kT*kG; antisense) [Compound 958680]”, the “YAP1 (% UTC)” value is given as 50 % UTC.

With “958685 (antisense kA*kG*k[5mC]*dT*dA*dT*dG*dG*dA*dA*dA*dG*dT*kG*kT*k[5mC]) [Compound 958685]”, the “YAP1 (% UTC)” value was 24 % UTC.

Regarding “958690 (antisense kT*kG*kG*dA*d[5mC]*dT*d[5mC]*dT*dT*dG*dA*dT*d[5mC]*kA*k[5mC]*kA) [Compound 958690]”, the “YAP1 (% UTC)” value came to 26 % UTC.

As for “958695 (antisense kT*k[5mC]*kA*dA*dT*dT*d[5mC]*dT*d[5mC]*d[5mC]*dA*d[5mC]*d[5mC]*kA*kG*kA) [Compound 958695]”, the “YAP1 (% UTC)” value worked out at 45 % UTC.

For the substance “958700 (antisense k[5mC]*kT*kA*dA*dT*dA*dT*dA*dG*dA*d[5mC]*dT*dA*k[5mC]*kT*k[5mC]) [Compound 958700]”, the “YAP1 (% UTC)” value was found to be 55 % UTC.

Source of the values: patent US11214803B2, “Modulators of YAP1 expression” (Ionis Pharmaceuticals, Inc., priority 2019, dated 2022).
